target: T1, FXR ligand binding domain (Homo sapiens, UniProt Q96RI1); test: Radioligand Binding Assay (scintillation proximity radioligand displacement); conditions: GST-FXR LBD fusion protein on SPA beads, test compound 6×10^−9 M to 2.5×10^−5 M
T1 construct: made in house; host or cells: E. coli BL21 (pLysS)
T1 sequence (Q96RI1 193-472 isoform Q96RI1-2): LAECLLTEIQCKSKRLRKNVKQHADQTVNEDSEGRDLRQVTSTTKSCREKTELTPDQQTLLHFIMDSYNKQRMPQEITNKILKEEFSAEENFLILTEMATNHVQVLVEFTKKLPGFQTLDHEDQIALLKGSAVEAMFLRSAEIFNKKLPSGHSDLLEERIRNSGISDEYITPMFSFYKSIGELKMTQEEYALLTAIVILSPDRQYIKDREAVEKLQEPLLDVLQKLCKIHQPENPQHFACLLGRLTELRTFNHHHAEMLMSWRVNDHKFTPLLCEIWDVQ
Experimental: The following tests were carried out in order to determine the activity of the compounds of formula (I). Background information on the binding assay can be found in: Nichols J S et al. “Development of a scintillation proximity assay for peroxisome proliferator-activated receptor gamma ligand binding domain”, (1998) Anal. Biochem. 257: 112-119.
Bacterial and mammalian expression vectors were constructed to produce glutathione-s-transferase (GST) and Gal4 DNA binding domain (GAL) proteins fused to the ligand binding domain (LBD) of human FXR (aa 193-473). To accomplish this, the portions of the sequences encoding the FXR LBD were amplified by polymerase chain reaction (PCR) from a full-length clone by PCR and then subcloned into the plasmid vectors. The final clone was verified by DNA sequence analysis.
The induction, expression, and subsequent purification of GST-LBD fusion protein was performed in E. coli strain BL21 (pLysS) cells by standard methods (Current Protocols in Molecular Biology, Wiley Press, ed. Ausubel et al.).
Radioligand Binding Assay
Binding of test substances to the FXR ligand binding domain was assessed in a radioligand displacement assay. The assay was performed in a buffer consisting of 50 mM Hepes, pH 7.4, 10 mM NaCl, 5 mM MgCl2, 0.01% CHAPS. For each reaction well in a 96-well plate, 40 nM of GST-FXR LBD fusion protein was bound to […] glutathione ytrium silicate SPA beads (PharmaciaAmersham) in a final volume of […] by shaking. A radioligand (e.g., 20 nM of 2,N-dicyclohexyl-2-[2-(2,4 dimethoxy-phenyl)-benzoimidazol-1-yl]-acetamide) and test compounds were added, and scintillation proximity counting was performed. All binding assays were performed in 96-well plates and the amount of bound ligand was measured on a Packard TopCount using OptiPlates (Packard). Dose response curves were performed within a range of test compound concentrations from 6×10^−9 M to 2.5×10^−5 M and IC50 values were calculated.

SMILES | IC50 [nM]
Fc1cc2nc(-c3ccc(Cl)cc3OCc3ccc(-c4nnn[nH]4)cc3F)n(CC3CCCCC3)c2cc1F [Example 32, 2-{4-Chloro-2-[2-fluoro-4-(1H-tetrazol-5-yl)-benzyloxy]-phenyl}-1-cyclohexylmethyl-5,6-difluoro-1H-benzoimidazole] | 10
Fc1cc2nc(-c3ccc(Cl)cc3OCc3ccc(-c4nnn[nH]4)c(F)c3)n(CC3CCCCC3)c2cc1F [Example 33, 2-{4-Chloro-2-[3-fluoro-4-(1H-tetrazol-5-yl)-benzyloxy]-phenyl}-1-cyclohexylmethyl-5,6-difluoro-1H-benzoimidazole] | 40
Fc1cc2nc(-c3ccccc3OCc3ccc(-c4nnn[nH]4)cc3F)n(CC3CCCCC3)c2cc1F [Example 34, 1-Cyclohexylmethyl-5,6-difluoro-2-{2-[2-fluoro-4-(1H-tetrazol-5-yl)-benzyloxy]-phenyl}-1H-benzoimidazole] | 30
COc1cc(-c2nnn[nH]2)ccc1COc1cc(Cl)ccc1-c1nc2cc(F)c(F)cc2n1CC1CCCCC1 [Example 35, 2-{4-Chloro-2-[2-methoxy-4-(1H-tetrazol-5-yl)-benzyloxy]-phenyl}-1-cyclohexylmethyl-5,6-difluoro-1H-benzoimidazole] | 50
Fc1cc2nc(-c3ccc(Cl)cc3OCCc3ccc(-c4nnn[nH]4)cc3)n(CC3CCCCC3)c2cc1F [Example 36, 2-(4-Chloro-2-{2-[4-(1H-tetrazol-5-yl)-phenyl]-ethoxy}-phenyl)-1-cyclohexylmethyl-5,6-difluoro-1H-benzoimidazole] | 90
Fc1cc2nc(-c3ccc(Cl)cc3OCc3ccc(-c4nnn[nH]4)s3)n(CC3CCCCC3)c2cc1F [Example 37, 2-{4-Chloro-2-[5-(1H-tetrazol-5-yl)-thiophen-2-ylmethoxy]-phenyl}-1-cyclohexylmethyl-5,6-difluoro-1H-benzoimidazole] | 200
Fc1cc2nc(-c3ccc(Cl)cc3OCc3ccc(-c4nnn[nH]4)cc3C(F)(F)F)n(CC3CCCCC3)c2cc1F [Example 38, 2-{4-Chloro-2-[4-(1H-tetrazol-5-yl)-2-trifluoromethyl-benzyloxy]-phenyl}-1-cyclohexylmethyl-5,6-difluoro-1H-benzoimidazole] | 200
Fc1cc(-c2nnn[nH]2)ccc1COc1cc(Cl)ccc1-c1nc2ccccc2n1CC1CCCCC1 [Example 39, 2-{4-Chloro-2-[2-fluoro-4-(1H-tetrazol-5-yl)-benzyloxy]-phenyl}-1-cyclohexylmethyl-1H-benzoimidazole] | 30
Fc1cc2nc(-c3ccccc3COc3ccc(-c4nnn[nH]4)cc3F)n(CC3CCCCC3)c2cc1F [Example 40, 1-Cyclohexylmethyl-5,6-difluoro-2-{2-[2-fluoro-4-(1H-tetrazol-5-yl)-phenoxymethyl]-phenyl}-1H-benzoimidazole] | 4
Fc1cc2nc(-c3ccccc3COc3ccc(-c4nnn[nH]4)c(F)c3)n(CC3CCCCC3)c2cc1F [Example 41, 1-Cyclohexylmethyl-5,6-difluoro-2-{2-[3-fluoro-4-(1H-tetrazol-5-yl)-phenoxymethyl]-phenyl}-1H-benzoimidazole] | 200
Fc1cc2nc(-c3ccc(Cl)cc3OCc3ccc(-c4nnn[nH]4)cc3F)n(CC3CCCC3)c2cc1F [Example 42, 2-{4-Chloro-2-[2-fluoro-4-(1H-tetrazol-5-yl)-benzyloxy]-phenyl}-1-cyclopentylmethyl-5,6-difluoro-1H-benzoimidazole] | 40
Fc1cc2nc(-c3ccc(Cl)cc3OCc3ccc(-c4nnn[nH]4)cc3F)n(CCC3CCCCC3)c2cc1F [Example 43, 2-{4-Chloro-2-[2-fluoro-4-(1H-tetrazol-5-yl)-benzyloxy]-phenyl}-1-(2-cyclohexyl-ethyl)-5,6-difluoro-1H-benzoimidazole] | 90
CCCCCn1c(-c2ccc(Cl)cc2OCc2ccc(-c3nnn[nH]3)cc2F)nc2cc(F)c(F)cc21 [Example 44, 2-{4-Chloro-2-[2-fluoro-4-(1H-tetrazol-5-yl)-benzyloxy]-phenyl}-5,6-difluoro-1-pentyl-1H-benzoimidazole] | 100
Fc1cc2nc(-c3ccc(Cl)cc3OCc3ccc(-c4nnn[nH]4)cc3F)n(CC3CCCCO3)c2cc1F (stereo not shown) [Example 45, 2-{4-Chloro-2-[2-fluoro-4-(1H-tetrazol-5-yl)-benzyloxy]-phenyl}-5,6-difluoro-1-(tetrahydro-pyran-2-ylmethyl)-1H-benzoimidazole] | 100
CC(C)(C)Cn1c(-c2ccc(Cl)cc2OCc2ccc(-c3nnn[nH]3)cc2F)nc2cc(F)c(F)cc21 [Example 46, 2-{4-Chloro-2-[2-fluoro-4-(1H-tetrazol-5-yl)-benzyloxy]-phenyl}-1-(2,2-dimethyl-propyl)-5,6-difluoro-1H-benzoimidazole] | 400
Fc1cc2nc(-c3ccc(Cl)cc3OCc3ccc(-c4nnn[nH]4)cc3F)n(CC3CCOCC3)c2cc1F [Example 47, 2-{4-Chloro-2-[2-fluoro-4-(1H-tetrazol-5-yl)-benzyloxy]-phenyl}-5,6-difluoro-1-(tetrahydro-pyran-4-ylmethyl)-1H-benzoimidazole] | 900
Fc1cc2nc(-c3ccc(Cl)cc3OCc3ccccc3Cl)n(Cc3ccccc3)c2cc1F [Example 48, 1-Benzyl-2-[4-chloro-2-(2-chloro-benzyloxy)-phenyl]-5,6-difluoro-1H-benzoimidazole] | 400
Fc1cc2nc(-c3ccc(Cl)cc3OCC3CCCC3)n(Cc3ccccc3)c2cc1F [Example 49, 1-Benzyl-2-(4-chloro-2-cyclopentylmethoxy-phenyl)-5,6-difluoro-1H-benzoimidazole] | 1100
Fc1cc2nc(-c3ccc(Cl)cc3OCC3CC3)n(Cc3ccccc3)c2cc1F [Example 50, 1-Benzyl-2-(4-chloro-2-cyclopropylmethoxy-phenyl)-5,6-difluoro-1H-benzoimidazole] | 1900
O=C(O)c1ccc(COc2cc(Cl)ccc2-c2nc3cc(F)c(F)cc3n2Cc2ccccc2)cc1 [Example 51, 4-[2-(1-Benzyl-5,6-difluoro-1H-benzoimidazol-2-yl)-5-chloro-phenoxymethyl]-benzoic acid] | 500
O=C(O)COc1ccc(COc2cc(Cl)ccc2-c2nc3cc(F)c(F)cc3n2Cc2ccccc2)cc1 [Example 52, {4-[2-(1-Benzyl-5,6-difluoro-1H-benzoimidazol-2-yl)-5-chloro-phenoxymethyl]-phenoxy}-acetic acid] | 800
Fc1cc2nc(-c3ccc(Cl)cc3OCc3ccccc3Cl)n(Cc3cccc(Cl)c3)c2cc1F [Example 53, 1-(3-Chloro-benzyl)-2-[4-chloro-2-(2-chloro-benzyloxy)-phenyl]-5,6-difluoro-1H-benzoimidazole] | 1700
Fc1cc2nc(-c3ccc(Cl)cc3OCC3CCCC3)n(Cc3cccc(Cl)c3)c2cc1F [Example 54, 1-(3-Chloro-benzyl)-2-(4-chloro-2-cyclopentylmethoxy-phenyl)-5,6-difluoro-1H-benzoimidazole] | 1200
Fc1cc2nc(-c3ccc(Cl)cc3OCC3CC3)n(Cc3cccc(Cl)c3)c2cc1F [Example 55, 1-(3-Chloro-benzyl)-2-(4-chloro-2-cyclopropylmethoxy-phenyl)-5,6-difluoro-1H-benzoimidazole] | 2600
O=C(O)c1ccc(COc2cc(Cl)ccc2-c2nc3cc(F)c(F)cc3n2Cc2cccc(Cl)c2)cc1 [Example 56, 4-{5-Chloro-2-[1-(3-chloro-benzyl)-5,6-difluoro-1H-benzoimidazol-2-yl]-phenoxymethyl}-benzoic acid] | 500
O=C(O)COc1ccc(COc2cc(Cl)ccc2-c2nc3cc(F)c(F)cc3n2Cc2cccc(Cl)c2)cc1 [Example 57, (4-{5-Chloro-2-[1-(3-chloro-benzyl)-5,6-difluoro-1H-benzoimidazol-2-yl]-phenoxymethyl}-phenoxy)-acetic acid] | 200
O=C(O)CCc1ccc(Cn2c(-c3ccc(Cl)cc3OCc3ccccc3Cl)nc3cc(F)c(F)cc32)cc1 [Example 58, 3-(4-{2-[4-Chloro-2-(2-chloro-benzyloxy)-phenyl]-5,6-difluoro-benzoimidazol-1-ylmethyl}-phenyl)-propionic acid] | 30
O=C(O)CCc1ccc(Cn2c(-c3ccc(Cl)cc3OCC3CCCC3)nc3cc(F)c(F)cc32)cc1 [Example 59, 3-{4-[2-(4-Chloro-2-cyclopentylmethoxy-phenyl)-5,6-difluoro-benzoimidazol-1-ylmethyl]-phenyl}-propionic acid] | 300

Source: patent US8309581B2, “Benzimidazole derivatives” (Hoffmann-La Roche Inc., priority 2009, dated 2012)
